Data from PubChem BioAssay AID1259407 (Chemical Carcinogenesis Research Information System (CCRIS), 2018).
Calls of active or inactive are those of the source. How the calls were made is not given here.

Test system: CCRIS mutagenicity, Ames/micronucleus/aberration tests
Assay: CCRIS mutagenicity studies
Conditions: Method: STANDARD PLATE

Measured: mutagenic call

CC(F)(F)F
inactive: Test System: AMES SALMONELLA TYPHIMURIUM, Strain/Indicator: TA97, Metabolic Activation: NONE inactive; negative | Test System: AMES SALMONELLA TYPHIMURIUM, Strain/Indicator: TA97, Metabolic Activation: RAT, LIVER, S-9, AROCLOR 1254 inactive; negative | Test System: AMES SALMONELLA TYPHIMURIUM, Strain/Indicator: TA98, Metabolic Activation: NONE inactive; negative | Test System: AMES SALMONELLA TYPHIMURIUM, Strain/Indicator: TA98, Metabolic Activation: RAT, LIVER, S-9, AROCLOR 1254 inactive; negative | Test System: AMES SALMONELLA TYPHIMURIUM, Strain/Indicator: TA100, Metabolic Activation: NONE inactive; negative | Test System: AMES SALMONELLA TYPHIMURIUM, Strain/Indicator: TA100, Metabolic Activation: RAT, LIVER, S-9, AROCLOR 1254 inactive; negative | Test System: AMES SALMONELLA TYPHIMURIUM, Strain/Indicator: TA1535, Metabolic Activation: NONE inactive; negative | Test System: AMES SALMONELLA TYPHIMURIUM, Strain/Indicator: TA1535, Metabolic Activation: RAT, LIVER, S-9, AROCLOR 1254 inactive; negative | Test System: AMES SALMONELLA TYPHIMURIUM, Strain/Indicator: TA1538, Metabolic Activation: NONE inactive; negative | Test System: AMES SALMONELLA TYPHIMURIUM, Strain/Indicator: TA1538, Metabolic Activation: RAT, LIVER, S-9, AROCLOR 1254 inactive; negative | Test System: E. COLI, Strain/Indicator: WP2 UVRA (PKM101), Metabolic Activation: NONE inactive; negative | Test System: E. COLI, Strain/Indicator: WP2 UVRA (PKM101), Metabolic Activation: RAT, LIVER, S-9, AROCLOR 1254 inactive; negative
